The test system of series [1] is HIV (NL43 virus) in P4CCR5luc cells. Kind of series: HIV screen: primary screening at 50 μM in P4CCR5luc cells (beta-gal readout). Format: cell-based. To be noted: Human immunodeficiency virus 1, NL43, P4 cells. The procedure:
HIV screen: Primary Screening of PSI compounds are tested for antiviral HIV activity at 50 μM. The cells used are P4CCR5luc cells; they are human HIV indicator cells, which are derived from Hela cells, express CD4, CXCR4, CCR5, luciferase, and a beta-gal gene under the control of HIV-1 LTR. P4CCR5 luc cells are cultivated in DMEM, 10% FBS, Penicillin, Streptomycin, and G418 at 500 μg/ml. 100 μl of P4 CCR5-luc cells are plated at 10,000 cells per well in 96 well Opaque Assay plates and incubated overnight at 37° C. The next day, the media is aspirated from the plates and replaced by 100 μl of compound freshly diluted into media at 2×50 uM, in triplicate, for 4 hours at 37° C. The cells are then infected with 100 ul NL43 virus at 5 ng of p24 per well, in the presence of 2×20 ug/ml of DEAE-Dextran for 40-42 hours. Non infected, infected no drug and AZT controls are always present in triplicate on each plate. After infection the beta-gal is quantitated using the Galacto-Star kit from Applied Biosystems using the manufacturer instructions and the luminescence measured using a Victor apparatus from Perkin-Elmer. Results are represented as percentage inhibition compare to untreated cells. The assays are performed in 2 to 3 independent experiments.

The test system of series [2] is HIV (NL43 wild type virus) in P4 CCR5-luc cells. Kind of series: HIV titration to determine EC50 on P4 CCR5-luc cells. Format: cell-based. The settings on record: Human immunodeficiency virus 1, NL43, read-out: HIV Inhibition P4 Cells EC50. Here is the method: HIV-Titration of PSI Activity to Determine EC50 on P4 CCR-luc Cells.
P4 CCR5-luc cells are plated at 10,000 cells per well (100 μl) in 96 well Opaque Assay plates and incubated overnight at 37° C. The next day, the media is aspirated from the plates and replaced by 100 ul of compound freshly diluted into appropriate media (DMEM, 10% FBS, G418 500 μg/ml, penicillin/streptomycin) at 2× final concentrations in 5 fold dilutions, usually from 2×100 μM to 2×0.032 uM, in triplicate, for 4 hours at 37° C. The cells are then infected with 100 ul NL43 wild type or mutant virus, at 5 ng to 20 ng of p24 per well, in the presence of 2×20 ug/ml of DEAE-Dextran, for 40-42 hours. Non infected and infected no drug controls are always present in 12plicate on each plate. An AZT control is tested in parallel for each experiment. After infection, the beta-gal is quantitated in the cell lysate using the Galacto-Star kit from Applied Biosystems and the luminescence measured using a Victor apparatus from Perkin-Elmer. The EC50 (Effective Concentration) is calculated using a Microsoft® Excel® spreadsheet that calculates the concentration necessary to inhibit the 50% of the infection. The assay is performed in at least 2 independent experiments.

Series [3] has as its system HCV replicon RNA in Huh 7 cells (clone A cells). As to the kind of experiment: HCV replicon assay, clone A cells (replicon RNA by RT-PCR). It counts as cell-based. Here is the method:
(§1) HCV replicon RNA-containing Huh 7 cells (clone A cells; Apath, LLC, St. Louis, Mo.) were kept at exponential growth in Dulbecco's modified Eagle's medium (high glucose) containing 10% fetal bovine serum, 4 mM L-glutamine and 1 mM sodium pyruvate, 1× nonessential amino acids, and G418 (1,000iug/m1). Antiviral assays were performed in the same medium without G418. Cells were seeded in a 96-well plate at 1,500 cells per well, and test compounds were added immediately after seeding. Incubation time 4 days. At the end of the incubation step, total cellular RNA was isolated (RNeasy 96 kit; Qiagen). Replicon RNA and an internal control (TaqMan rRNA control reagents; Applied Biosystems) were amplified in a single-step multiplex RT-PCR protocol as recommended by the manufacturer. The HCV primers and probe were designed with Primer Express software (Applied Biosystems) and covered highly conserved 5′-untranslated region (UTR) sequences (sense primer: • 5′-AGCCATGGCGTTAGTA(T)GAGTGT-3′ (SEQ ID NO:4); antisense primer: • 5′-TTCCGCAGACCACTATGG-3′ (SEQ ID NO:5); and probe: • 5′-FAM-[…]-TAMRA-3′ (SEQ ID NO:6)).
(§2) To express the antiviral effectiveness of a compound, the threshold RT-PCR cycle of the test compound was subtracted from the average threshold RT-PCR cycle of the no-drug control (ΔCtHCV). […]

For series [4], the system named is rRNA of Huh 7 clone A cells. Kind of series: HCV replicon assay, rRNA internal control (cytotoxicity, ΔCt rRNA). It counts as cell-based, human. Here is the method: as §1, §2
For series [5], the system named is HCV S282T cells. Kind of series: HCV inhibition in S282T cells. Format: cell-based. To be noted: Hepatitis C virus, read-out: HCV Inhibition S282T Cells EC90.
Series [6] concerns HBV in HepG2-AD38 cell line. Kind of series: HBV AD38 assay (HBV DNA in supernatant by real time PCR). It counts as cell-based. The settings on record: Hepatitis B virus; read-out: HBV Inhibition EC90. Here is the method:
Biological Assays HBV AD38 Assay
The materials required for the assay comprise the following:
The HepG2-AD38 cell line.
The culture medium for HepG2-AD38 comprises DMEM-F/12, 10% fetal bovine serum, 100 IU/ml/100 ug/ml of Penicillin/streptomycin, 50 μg/ml kanamycin, 0.3 μg/ml tetracycline, and 200 μg/ml G418.
The assay medium for HepG2-AD38 comprises DMEM-F/12, 10% fetal bovine serum, 1001 U/ml/100 μg/ml of penicillin/streptomycin, 50 μg/ml kanamycin, and 200 μg/ml G418 Further materials comprise Phosphate buffered saline (PBS), Biocoated 96 well plates, DNeasy 96 tissue kit (Qiagen), QIAvac 96 vacuum manifold, Micro amp optical 96 well reaction plates (Applied Biosystems), Micro amp optical caps (Applied Biosystems), Tagman Universal PCR Master Mix (Applied Biosystems), and a 7700 Sequence detector (Applied Biosystems),
The primers and probes for HBV DNA comprise the 1125 nM forward primer (GGACCCCTGCTCGTGTTACA) (SEQ ID NO:1), the 1125 nM reverse primer (GAGAGAAGTCCACCACGAGTCTAGA) (SEQ ID NO:2), and the 250 nM probe (FAM-TGTTGACAAGAATCCTCACAATACCAC) (SEQ ID NO:3).
Seed 5×10^4 cells/well in 200 μl of culture medium in a 96 well biocoated plate and incubate the plate at 37° C. with 5% CO2. […]

The nature of series [7]: Toxicity, luciferase assay in P4 CCR5-luc cells. Format: cell-based. To be noted: human, read-out: Cytotoxicity CC50, P4 Cells. Here is the method:
P4 CCR5-luc cells are plated at 10,000 cells per well (100 ul) in 96 well Opaque Assay plates and incubated overnight at 37° C. The next day, the media is aspirated from the plates and replaced by 200 ul of compound freshly diluted into media in 5 fold dilutions from 100 μM to 0.0062 μM. After 4 days of incubation at 37° C., the luciferase activity is measured in the cell lysate using the Bright Glow kit from Promega and the luminescence measured using a Victor apparatus from Perkin-Elmer.

A short description of series [8]: MTS cytotoxicity assay, CEM. Format: cell-based. To be noted: human, CEM (lymphoid) cells. Here is the method:
(§3) Human cells lines Huh 7 and HepG2 (liver), BxPC3 (pancreatic) and CEM (lymphoid) are used for the MTS assays in 96 wells plates. Drugs are freshly diluted in media at 2×100 μM, 50 μM, 25 μM, 10 μM, 5 μM, 1 μM and 50 μl is dispensed in triplicate in the plates. The wells at the periphery of the plate contain 100 ul of media only and will be the blank controls. A replicate control with no drug is always performed in each plate. 50 μl of cells are added to the plate, at 2000 cells per well for Huh 7, HepG2 and PxPC3, and 5000 cells per well for CEM cells. No cells are added at the periphery of the plate. The media used for Huh 7, HepG2 and BxPC3 cells is DMEM with 10% FBS, and Penicillin/streptomycin, and RPMI with 10% FBS, and Penicillin/streptomycin for CEM cells. After 8 days of incubation at 37° C., 20 μl of MTS dye from the CellTiter 96 Aqueous One Solution Cell Proliferation Assay kit from Promega is added to each well and the plate incubated for 2 h at 37° C. The absorbance is then read at 490 nm using the microplate reader E1800 from Biotek. The signal is calculated by subtracting the absorbance measured in the blank controls. The CC50 (Cytotoxic Concentration) value is then determined by comparing the signal obtained with the no-drug cell control with the treated cells and calculating the concentration of drug necessary to inhibit 50% of the signal in the wells treated with drugs.

Series [9] in a line: MTS cytotoxicity assay, BxPC3. Format: cell-based. To be noted: human, BxPC3 (pancreatic) cells. The procedure:
as §3

Series [10] is described as follows: MTS cytotoxicity assay, HepG2. The settings on record: human, HepG2 (liver) cells. It counts as cell-based. The procedure:
as §3

A short description of series [11]: MTS cytotoxicity assay, Huh 7. It counts as cell-based. The settings on record: human, Huh 7 (liver) cells. Here is the method: as §3
The nature of series [12]: Cytotoxicity in PBMC. It counts as cell-based.

Where only a bound is given, the exact number is not on record here.

In series [1], `C[C@@H]1[C@H](n2ccc(N)nc2=O)O[C@@](CO)(N=[N+]=[N-])[C@H]1O` returned an inhibition at 50 µM of 100%. In series [2], the EC50 came out at 0.18 µM. The “Screen HCV Clone A Cells −log10 at 50 μM (HCV)” value in series [3] (50 μM, clone A cells, HCV RNA) is reported as −1.4 log10. The 90% effect concentration (EC90) in series [3] (Hepatitis C virus, Huh-7, read-out: HCV Inhibition Clone A cells EC90) came to 7.85 µM; in series [5], 73.1 µM; in series [6] it was 1.62 µM. In addition, in series [4], the “Screen HCV Clone A Cells −log10 at 50 μM (Rbz)” value is reported as −0.59 log10. Also, the 50% cytotoxic concentration (CC50) at 4 days in series [7] was above 100 µM. Moreover, the cytotoxic concentration (CC50) at 8 days is 400 µM in series [8], 400 µM in [9], 300 µM in series [10] and above 100 µM in series [11]. In series [12], this compound yielded a CC50 above 100 µM.

(Values after US8765710B2, “2′,4′-substituted nucleosides as antiviral agents” (Gilead Pharmasset LLC, priority 2007, dated 2014).)
